# Earlier results as cited in patent publication US20050049255A1, “Therapeutic combinations” (Pfizer Inc, priority 2003, published 2005).
# Tested on: dysmenorrhoea
Compound,"efficacy in the treatment of dysmenorrhoea (given intravenously, pilot study)","intensity of pain in women with dysmenorrhoea (double blind, randomised placebo controlled cross over trial, oral)"
1-deamino-2-D-Tyr (Oet)-4-Thr-8-Orn-oxytocin,effective in the treatment of dysmenorrhoea,
COc1ccc(S(=O)(=O)N2c3ccc(Cl)cc3[C@](O)(c3ccccc3Cl)[C@@H]2C(=O)N2CCC[C@H]2C(N)=O)cc1OC [Relcovaptan],,dose dependently reduced the intensity of pain
